In ChEMBL document CHEMBL1149188, “Synthesis of 2,4-diamino-6-[2'-O-(omega-carboxyalkyl)oxydibenz[b,f]azepin-5-yl]methylpteridines as potent and selective inhibitors of Pneumocystis carinii, Toxoplasma gondii, and Mycobacterium avium dihydrofolate reductase” (J Med Chem, 2004):

What was measured:
[1] = biological target: T1, Bifunctional dihydrofolate reductase-thymidylate synthase (Toxoplasma gondii, UniProt Q07422); experiment: Concentration required to inhibit the Toxoplasma gondii Dihydrofolate reductase by 50% was determined; […]
T1 sequence (Q07422 whole entry): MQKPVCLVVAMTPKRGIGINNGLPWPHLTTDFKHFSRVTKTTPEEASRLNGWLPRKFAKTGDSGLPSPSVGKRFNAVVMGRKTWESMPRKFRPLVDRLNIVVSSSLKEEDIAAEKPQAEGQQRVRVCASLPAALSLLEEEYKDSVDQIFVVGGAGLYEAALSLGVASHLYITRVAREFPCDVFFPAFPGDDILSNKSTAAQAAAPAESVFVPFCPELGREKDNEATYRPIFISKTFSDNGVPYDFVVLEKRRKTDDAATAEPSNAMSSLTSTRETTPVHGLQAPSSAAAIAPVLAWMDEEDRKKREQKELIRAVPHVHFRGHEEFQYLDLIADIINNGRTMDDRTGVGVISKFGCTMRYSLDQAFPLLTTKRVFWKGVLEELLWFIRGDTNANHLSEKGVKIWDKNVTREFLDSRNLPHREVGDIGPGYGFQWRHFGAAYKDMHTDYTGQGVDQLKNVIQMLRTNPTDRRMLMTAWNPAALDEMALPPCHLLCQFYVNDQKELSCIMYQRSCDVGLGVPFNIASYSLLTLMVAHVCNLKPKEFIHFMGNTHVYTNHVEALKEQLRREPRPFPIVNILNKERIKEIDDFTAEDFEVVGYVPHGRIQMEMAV

Dihydrofolate reductase [2] = biological target: T2, Dihydrofolate reductase (Rattus norvegicus, UniProt Q920D2); experiment: Concentration required to inhibit the rat liver Dihydrofolate reductase by 50% was determined; […]
T2 sequence (Q920D2 whole entry): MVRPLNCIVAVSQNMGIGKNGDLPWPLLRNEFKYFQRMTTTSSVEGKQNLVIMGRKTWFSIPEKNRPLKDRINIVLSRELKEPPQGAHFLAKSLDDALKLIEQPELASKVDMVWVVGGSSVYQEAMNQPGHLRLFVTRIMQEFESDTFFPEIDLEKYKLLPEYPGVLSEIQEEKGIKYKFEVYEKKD

Dihydrofolate reductase [3] = biological target: T3, Dihydrofolate reductase (Pneumocystis carinii, UniProt P16184); experiment: Concentration required to inhibit the Pneumocystis carinii Dihydrofolate reductase by 50% was determined; Range: 58-110
T3 sequence (P16184 whole entry): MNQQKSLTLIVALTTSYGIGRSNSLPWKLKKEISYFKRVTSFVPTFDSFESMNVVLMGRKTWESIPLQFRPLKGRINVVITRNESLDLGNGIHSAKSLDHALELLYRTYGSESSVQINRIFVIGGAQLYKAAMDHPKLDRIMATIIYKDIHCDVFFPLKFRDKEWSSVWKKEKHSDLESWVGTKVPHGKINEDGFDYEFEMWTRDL

[4] = Selectivity index was determined by the ratio for IC50 of rat liver DHFR to the IC50 of Toxoplasma gondii DHFR; Range: 53-113
[5] = Selectivity index was determined by the ratio for IC50 of rat liver DHFR to the IC50 of Mycobacterium avium DHFR; […]
[6] = biological target: T1, Bifunctional dihydrofolate reductase-thymidylate synthase; experiment: Concentration required to inhibit the Toxoplasma gondii Dihydrofolate reductase by 50% was determined; Range: 23-30
Dihydrofolate reductase [7] = biological target: T4, Dihydrofolate reductase (Mycobacterium avium, UniProt O30463); experiment: Concentration required to inhibit the Mycobacterium avium Dihydrofolate reductase by 50% was determined; Range: 1.2-1.4
T4 sequence (O30463 whole entry): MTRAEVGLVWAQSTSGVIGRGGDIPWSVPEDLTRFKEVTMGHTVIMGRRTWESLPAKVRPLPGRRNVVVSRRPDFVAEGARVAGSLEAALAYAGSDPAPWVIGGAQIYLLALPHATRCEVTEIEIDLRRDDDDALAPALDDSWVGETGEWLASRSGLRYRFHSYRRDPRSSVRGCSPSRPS

Dihydrofolate reductase [8] = biological target: T3, Dihydrofolate reductase
Dihydrofolate reductase [9] = biological target: T2, Dihydrofolate reductase; experiment: Concentration required to inhibit the rat liver Dihydrofolate reductase by 50% was determined; Range: 370-440
[10] = Selectivity index was determined by the ratio for IC50 of rat liver DHFR to the IC50 of Mycobacterium avium DHFR; Range: 260-370
[11] = Selectivity index was determined by the ratio for IC50 of rat liver DHFR to the IC50 of Pneumocystis carinii DHFR; Range: 11-16
[12] = Selectivity index was determined by the ratio for IC50 of rat liver DHFR to the IC50 of Toxoplasma gondii DHFR; Range: 12-19
Dihydrofolate reductase [13] = biological target: T4, Dihydrofolate reductase; experiment: Concentration required to inhibit the Mycobacterium avium Dihydrofolate reductase by 50% was determined
[14] = Selectivity index was determined by the ratio for IC50 of rat liver DHFR to the IC50 of Mycobacterium avium DHFR
[15] = biological target: T1, Bifunctional dihydrofolate reductase-thymidylate synthase; experiment: Concentration required to inhibit the Toxoplasma gondii Dihydrofolate reductase by 50% was determined; Range: 20-23
Dihydrofolate reductase [16] = biological target: T3, Dihydrofolate reductase; experiment: Concentration required to inhibit the Pneumocystis carinii Dihydrofolate reductase by 50% was determined; Range: 9.8-12
[17] = Selectivity index was determined by the ratio for IC50 of rat liver DHFR to the IC50 of Toxoplasma gondii DHFR; Range: 55-65
[18] = Selectivity index was determined by the ratio for IC50 of rat liver DHFR to the IC50 of Pneumocystis carinii DHFR; Range: 80-150
[19] = Selectivity index was determined by the ratio for IC50 of rat liver DHFR to the IC50 of Mycobacterium avium DHFR; Range: 140-230
Dihydrofolate reductase [20] = biological target: T4, Dihydrofolate reductase; experiment: Concentration required to inhibit the Mycobacterium avium Dihydrofolate reductase by 50% was determined; Range: 6.5-8.0
Dihydrofolate reductase [21] = biological target: T2, Dihydrofolate reductase; experiment: Concentration required to inhibit the rat liver Dihydrofolate reductase by 50% was determined; Range: 1100-1500
[22] = biological target: T1, Bifunctional dihydrofolate reductase-thymidylate synthase
Dihydrofolate reductase [23] = biological target: T4, Dihydrofolate reductase
Dihydrofolate reductase [24] = biological target: T3, Dihydrofolate reductase; remark: listed apart in the source
Description: Concentration required to inhibit the Pneumocystis carinii Dihydrofolate reductase by 50% was determined; Range: 0.88-1.2

Dihydrofolate reductase [25] = biological target: T2, Dihydrofolate reductase
[26] = biological target: T1, Bifunctional dihydrofolate reductase-thymidylate synthase; experiment: Concentration required to inhibit the Toxoplasma gondii Dihydrofolate reductase by 50% was determined; Range: 25-30
Dihydrofolate reductase [27] = biological target: T4, Dihydrofolate reductase; experiment: Concentration required to inhibit the Mycobacterium avium Dihydrofolate reductase by 50% was determined; Range: 3.6-4.4
Dihydrofolate reductase [28] = biological target: T3, Dihydrofolate reductase; experiment: Concentration required to inhibit the Pneumocystis carinii Dihydrofolate reductase by 50% was determined; Range: 19-29
Dihydrofolate reductase [29] = biological target: T2, Dihydrofolate reductase; experiment: Concentration required to inhibit the rat liver Dihydrofolate reductase by 50% was determined; Range: 1100-1200
[30] = Selectivity index was determined by the ratio for IC50 of rat liver DHFR to the IC50 of Mycobacterium avium DHFR; Range: 250-330
[31] = Selectivity index was determined by the ratio for IC50 of rat liver DHFR to the IC50 of Pneumocystis carinii DHFR; Range: 12-63
[32] = Selectivity index was determined by the ratio for IC50 of rat liver DHFR to the IC50 of Toxoplasma gondii DHFR; Range: 37-48
[33] = Selectivity index was determined by the ratio for IC50 of human DHFR to the IC50 of Mycobacterium avium DHFR
[34] = biological target: T1, Bifunctional dihydrofolate reductase-thymidylate synthase; remark: listed apart in the source
Description: Concentration required to inhibit the Toxoplasma gondii Dihydrofolate reductase by 50% was determined; Range: 8.9-11

Dihydrofolate reductase [35] = biological target: T3, Dihydrofolate reductase; remark: listed apart in the source
Description: Concentration required to inhibit the Pneumocystis carinii Dihydrofolate reductase by 50% was determined; Range: 0.92-1.3

Dihydrofolate reductase [36] = biological target: T2, Dihydrofolate reductase; remark: listed apart in the source
Dihydrofolate reductase [37] = biological target: T4, Dihydrofolate reductase; remark: listed apart in the source
[38] = biological target: T1, Bifunctional dihydrofolate reductase-thymidylate synthase; remark: listed apart in the source
Description: Concentration required to inhibit the Toxoplasma gondii Dihydrofolate reductase by 50% was determined; Range: 12-24

Dihydrofolate reductase [39] = biological target: T4, Dihydrofolate reductase; remark: listed apart in the source
Description: Concentration required to inhibit the Mycobacterium avium Dihydrofolate reductase by 50% was determined; Range: 6.2-11

Dihydrofolate reductase [40] = biological target: T3, Dihydrofolate reductase; experiment: Concentration required to inhibit the Pneumocystis carinii Dihydrofolate reductase by 50% was determined; Range: 18-25
Dihydrofolate reductase [41] = biological target: T2, Dihydrofolate reductase; experiment: Concentration required to inhibit the rat liver Dihydrofolate reductase by 50% was determined; Range: 250-300
[42] = Selectivity index was determined by the ratio for IC50 of rat liver DHFR to the IC50 of Mycobacterium avium DHFR; Range: 23-48
[43] = Selectivity index was determined by the ratio for IC50 of rat liver DHFR to the IC50 of Pneumocystis carinii DHFR; Range: 10-17
[44] = Selectivity index was determined by the ratio for IC50 of rat liver DHFR to the IC50 of Toxoplasma gondii DHFR; Range: 10-25
[45] = biological target: T1, Bifunctional dihydrofolate reductase-thymidylate synthase; experiment: Concentration required to inhibit the Toxoplasma gondii Dihydrofolate reductase by 50% was determined
Dihydrofolate reductase [46] = biological target: T2, Dihydrofolate reductase; experiment: Concentration required to inhibit the rat liver Dihydrofolate reductase by 50% was determined
[47] = Selectivity index was determined by the ratio for IC50 of rat liver DHFR to the IC50 of Toxoplasma gondii DHFR
[48] = biological target: T1, Bifunctional dihydrofolate reductase-thymidylate synthase; experiment: Concentration required to inhibit the Toxoplasma gondii Dihydrofolate reductase by 50% was determined (reported by Hoffman-LaRoche group)
Dihydrofolate reductase [49] = biological target: T5, Dihydrofolate reductase (Homo sapiens, UniProt P00374); experiment: Concentration required to inhibit the human Dihydrofolate reductase by 50% was determined
T5 sequence (P00374 whole entry): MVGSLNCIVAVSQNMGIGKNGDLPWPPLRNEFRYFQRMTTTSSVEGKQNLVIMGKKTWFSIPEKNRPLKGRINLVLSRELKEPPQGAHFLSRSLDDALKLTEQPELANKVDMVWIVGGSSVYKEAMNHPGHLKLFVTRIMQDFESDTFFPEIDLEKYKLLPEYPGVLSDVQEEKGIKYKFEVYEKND

Dihydrofolate reductase [50] = biological target: T5, Dihydrofolate reductase; experiment: Concentration required to inhibit the human Dihydrofolate reductase by 50% was determined (reported by Hoffman-LaRoche group)

Structure (SMILES): Nc1nc(N)c2nc(CN3c4ccccc4C=Cc4ccccc43)cnc2n1
- IC50 [1]: 39 nM
- IC50 (Dihydrofolate reductase [2]): 3000 nM
- IC50 (Dihydrofolate reductase [3]): 79 nM
- SI [4]: 77
- SI [5]: 250

Structure (SMILES): Nc1nc(N)c2nc(CN3c4ccccc4C=Cc4cc(O)ccc43)cnc2n1
- IC50 [6]: 26 nM
- IC50 (Dihydrofolate reductase [7]): 1.3 nM
- IC50 (Dihydrofolate reductase [8]): 31 nM
- IC50 (Dihydrofolate reductase [9]): 410 nM
- SI [10]: 320
- SI [11]: 13
- SI [12]: 16

Structure (SMILES): CCc1nc(N)nc(N)c1-c1ccc(Cl)c(/N=N/N(CCOC(C)=O)Cc2ccccc2)c1
- IC50 (Dihydrofolate reductase [13]): < 1 nM
- SI [14]: > 1000

Structure (SMILES): Nc1nc(N)c2nc(CN3c4ccccc4C=Cc4cc(OCCCCC(=O)O)ccc43)cnc2n1
- IC50 [15]: 21 nM
- IC50 (Dihydrofolate reductase [16]): 11 nM
- SI [17]: 62
- SI [18]: 120
- SI [19]: 180
- IC50 (Dihydrofolate reductase [20]): 7.2 nM
- IC50 (Dihydrofolate reductase [21]): 1300 nM

Structure (SMILES): Nc1nc(N)c2nc(CN3c4ccccc4C=Cc4cc(OCc5ccc(C(=O)O)cc5)ccc43)cnc2n1
- IC50 [22]: 22 nM
- IC50 (Dihydrofolate reductase [23]): 0.75 nM
- IC50 (Dihydrofolate reductase [24]): 1 nM
- IC50 (Dihydrofolate reductase [25]): 580 nM

Structure (SMILES): Nc1nc(N)c2nc(CN3c4ccccc4C=Cc4cc(OCCC(=O)O)ccc43)cnc2n1
- IC50 [26]: 28 nM
- IC50 (Dihydrofolate reductase [27]): 4 nM
- IC50 (Dihydrofolate reductase [28]): 24 nM
- IC50 (Dihydrofolate reductase [29]): 1100 nM
- SI [30]: 280
- SI [31]: 46
- SI [32]: 39

Structure (SMILES): CCCOc1cc(NCc2cnc3nc(N)nc(N)c3c2C)cc(OCCC)c1
- IC50 (Dihydrofolate reductase [13]): 0.19 nM
- SI [33]: 7300

Structure (SMILES): Nc1nc(N)c2nc(CN3c4ccccc4C=Cc4cc(OCCCC(=O)O)ccc43)cnc2n1
- IC50 [34]: 9.9 nM
- IC50 (Dihydrofolate reductase [35]): 1.1 nM
- IC50 (Dihydrofolate reductase [36]): 1500 nM
- IC50 (Dihydrofolate reductase [37]): 2 nM

Structure (SMILES): Nc1nc(N)c2nc(CN3c4ccccc4C=Cc4cc(OCC(=O)O)ccc43)cnc2n1
- IC50 [38]: 17 nM
- IC50 (Dihydrofolate reductase [39]): 8.2 nM
- IC50 (Dihydrofolate reductase [40]): 21 nM
- IC50 (Dihydrofolate reductase [41]): 280 nM
- SI [42]: 34
- SI [43]: 13
- SI [44]: 16

Structure (SMILES): Nc1nc(N)c2nc(CSc3ccc(Sc4ccccc4)cc3)cnc2n1
- IC50 [45]: 770 nM
- IC50 (Dihydrofolate reductase [46]): 250000 nM
- SI [47]: 320

Structure (SMILES): COc1ccc(OC)c(CCc2cnc3nc(N)nc(N)c3c2C)c1
- SI [47]: 98

Structure (SMILES): CCOc1cc(Cc2cnc(N)nc2N)cc(OCC)c1-n1cccc1 [EPIROPRIM]
- IC50 [48]: 900 nM
- IC50 (Dihydrofolate reductase [49]): 600000 nM
- IC50 (Dihydrofolate reductase [50]): 600000 nM
- IC50 (Dihydrofolate reductase [13]): 4.1 nM
- SI [47]: 670
